The results in this text go back to patent US20130041005A1, “PHARMACEUTICAL COMPOSITIONS COMPRISING NEUROPILIN INHIBITORS, AND THEIR USE FOR THE PREVENTION AND/OR TREATMENT OF ANGIOGENIC DISORDERS AND CANCERS” (TRAGEX PHARMA, priority 2011, published 2013).

Data set [1] has as its system HUVEC cells. The data set can be described thus: WST-1 proliferation assay, HUVEC. The class given is cell-based. The note with it: for cytotoxicity for endothelial cell lines (HUVEC cells) in culture: FIG. 1 cell survival; for IC50: Homo sapiens, HUVEC, 72 h, read-out: Anti-proliferative activity on HUVEC cells (IC50). The method, then: Cells were grown as subconfluent monolayer and cultured in 75 cm^2 flasks at 37° C., 5% CO2 in a humidified atmosphere, and medium was changed every two days. Only cells from passages 2-6 were used for the experiments.
All cells were detached with 3 ml of trypsin/EDTA (chelator of calcium and magnesium ions) (Lonza), incubated for 5 min at 37° C., and examined using a microscope to ensure that the cells were detached and floating. […] The supernatant was removed and the cell pellet resuspended in […] of culture medium. 50 μl of this solution were transferred in 20 μl of isotonic solution and the cells were counted by count cellular (Beckman Coulter).
The cell proliferation WST-1 assay is a colorimetric assay for the quantification of cell proliferation and viability, based on the enzymatic cleavage of the tetrazolium salt WST-1 added to the culture medium, to a water soluble colored formazan dye, detected by absorbance at 450 nm, by mitochondrial succinate-tetrazolium reductase in viable cells. An augmentation in enzyme activity will then lead to an increase in the amount of formazan dye formed, which directly correlates to the number of metabolically active cells in the culture.
After an incubation period of 72 h, at day 4, were prepared the […] medium with reagent WST-1 […] ([…]). The medium was removed from the 96 microplate and 200 μl of solution WST-1/medium were added for each well. The cells were incubated at 37° C. in a humidified atmosphere of 5% CO2 for 1 h 30 and the absorbance at 450-655 nm was measured by Microplate Manager 5.2 (Bio-Rad).

For data set [2], the system named is BT-474. Kind of data set: WST-1 proliferation assay, BT-474. The note with it: Homo sapiens; Breast BT-474, 72 h; read-out: Anti-proliferative activity IC50 (μM) ± SD. The class given is cell-based. The source says:
Several cancer cell lines were used: breast cancer cells (MDA-MB-231 (ATTCC® Number HTB-26™), MDA-MB-436 (ATTCC® Number HTB-130™), MDA-MB-438, BT-474 (ATTCC® Number HTB-20™)); cervical cancer cells (HeLa (ATTCC® Number CCL-2™)); colon cancer cells (HCT-116 (ATTCC® Number CCL-247™) and HT-29 (ATTCC® Number HTB-38™)); osteosarcoma cells (U2OS (ATTCC® Number HTB-96™)); pancreas cancer cells (MIA PaCa-2 (ATTCC® Number CRL-1420™) and Panc-10.5 (ATTCC® Number CRL-2547™)); prostate cancer cells (PC-3 (ATTCC® Number CRL-1435™) and LNCaP (ATTCC® Number CRL-1740™)); brain cancer cells (U87 glioblastoma (ATTCC® Number HTB-14™) and SH-SYSY neuroblastoma (ATTCC® Number CRL-2266™)). […]
After observation of cells under the microscope, old media were removed and the adherent cells washed gently twice with PBS (Phosphate Buffer Saline, —Ca^2+, —Mg^2+, Lonza cat no: 17-512F/12). […] 50 μl of this solution were transferred in 20 μl of isotonic solution and the cells were counted by count cellular (Beckman Coulter). […]
The cell proliferation WST-1 assay is a colorimetric assay for the quantification of cell proliferation and viability, based on the enzymatic cleavage of the tetrazolium salt WST-1 added to the culture medium, to a water soluble colored formazan dye, detected by absorbance at 450 nm, by mitochondrial succinate-tetrazolium reductase in viable cells. […]
(Formazan colour is commonly taken as a measure of viable cells.)

The test system of data set [3] is breast cancer cells (MDA-MB-231). Kind of data set: Motility assay (videomicroscopy), MDA-MB-231. Type of data set: cell-based, Human. The note with it: IC50 concentration, 24 h (FIG. 6). The method, then: The dishes were placed in an enclosed warming incubator on the motorized stage of a computer-controlled Eclipse Ti inverted microscope (Nikon Instruments Europe) equipped with a CCD Cool-SNAP HQ2 camera (Roper Scientific, USA) and a PC workstation. The incubator allowed samples to be kept at 37° C. in a humidified atmosphere containing 5% CO2, 95% air. Phase images were recorded at 100× every 5 min simultaneously over several fields from 0 till 24 h (288 frames). Cell motility was tracked and analyzed for at least 25 cells in each field over three independent experiments. The total distance of migration and the speed of migration were analyzed. The degree of persistence of movement was defined as the ratio between the linear distance and the total distance covered by the cells. Image acquisition and analyses were carried out using Metamorph 7 software (Universal Imaging).

As to `Cc1ccc(-c2nc3ccccc3[nH]2)cc1NC(=S)NC(=O)c1ccc2c(c1)OCCO2` [Compound 1, N-[5-(1H-benzimidazol-2-yl)-2-methylphenyl]-N′-(2,3-dihydro-1,4-benzodioxin-6-ylcarbonyl)thiourea], in data set [1], the “cytotoxicity for endothelial cell lines (HUVEC cells) in culture” value is reported as “cytotoxic” and the concentration for half-maximal inhibition (IC50) (as a rule, the concentration that gives 50% inhibition) is 200 ± 10 nM. Moreover, in data set [2], the IC50 stood at 2 µM. Also, in data set [3], the “motility (migration speed) of cancer cells” value is given as “significant anti-migratory effect”.
For `O=C(NC(=S)Nc1cccc(-c2nc3ccccc3[nH]2)c1)c1ccc2c(c1)OCCO2` [Compound 2, N-[3-(1H-benzimidazol-2-yl)phenyl]-N′-(2,3-dihydro-1,4-benzodioxin-6-ylcarbonyl)thiourea], in that order: “cytotoxic”, 50 ± 10 nM, 1.6 ± 0.06 µM and “significant anti-migratory effect”.
